Like-named read-outs stand apart in the source and are kept apart here. Bridge positions count the residues as written; N and C are the ends. Square brackets hold non-standard residues; d marks the D form. Ends that are not written are not given here. Peptide text beside a SMILES is read from it.
Key:
Assay type in all cases: cell-based, Pseudomonas aeruginosa
[1] = test system: P. aeruginosa Strain 121007
Protocol: (§1) The antimicrobial activity of the peptides was tested against a collection of P. aeruginosa, selected by their resistance or susceptibility to colistin and/or classified as MDR strains. The origin of the strains was either clinical, relevant to the current clinical situation, or commercial strains belonging to the American Type Culture Collection (ATCC, Manassas, VA, USA), which complemented the collection for comparison and control. For the initial activity screening of the 17 peptides, we tested them against P. aeruginosa ATCC strains 1211007 and 1211101. Both strains are multidrug-resistant; however, the key difference is that strain 1211007 is susceptible to colistin, whereas strain 1211101 is resistant to colistin.
(§2) Minimum Inhibitory Concentration (MIC) of the antimicrobial agents against bacterial strains was obtained through broth microdilution assays following a protocol based on the Clinical & Laboratory Standards Institute’s guidelines. Modifications regarding microplate material and broth were included when testing the peptides’ activity and are detailed below. Colistin MICs were obtained following recommendations of the joint CLSI-EUCAST Polymyxin Breakpoints Working Group using Cation Adjusted Mueller-Hinton Broth (90922, 500 g Sigma-Aldrich®, St. Louis, MO, USA), and strains Escherichia coli 13846 (mcr-1 positive) and P. aeruginosa ATCC 27853 were used as quality controls in all assays. Bacteria were cultured in Columbia Agar plates (Columbia Agar with 5% Sheep Blood 90 mm Stacker plates, Becton Dickinson, Franklin Lakes, NJ, USA) and incubated overnight at 37 °C. Polypropylene round-bottomed 96-well plates (-96-well Polypropylene Storage Microplates, 267334, Thermo Fischer Scientific, Waltham, MA, USA) were used to prevent peptide binding to plate walls. AST broth (BD Phoenix™ AST broth, 8 mL, 246003, Becton Dickinson, Franklin Lakes, NJ, USA) was used when testing the peptides’ activity. […] Three biological and technical replicates were performed per strain.

[2] = test system: P. aeruginosa Strain ATCC 121110
Protocol: as §1, §2

[3] = test system: Colistin-Resistant P. aeruginosa
Protocol: as §1, §2

[4] = test system: Colistin Susceptible P. aeruginosa
Protocol: as §1, §2

[5] = test system: P. aeruginosa strain panel; conditions: for MIC50 / MIC90: panel of 15 P. aeruginosa strains
Protocol: as §1, §2

[6] = Strain 121007, value in brackets
[7] = Strain ATCC 121110, value in brackets
[8] = colistin-resistant P. aeruginosa, value in brackets
[9] = colistin-susceptible P. aeruginosa, value in brackets
[10] = colistin-resistant P. aeruginosa
[11] = colistin-susceptible P. aeruginosa

Compound: CC[C@@H](C)[C@@H](NC(=O)CNC(=O)[C@@H](CCC(N)=O)NC(=O)[C@@H](CCCCN)NC(=O)[C@H](NC(=O)[C@@H](CCC(N)=O)NC(=O)CNC(=O)[C@@H](CC(C)C)NC(=O)[C@@H](CC(C)C)NC(=O)[C@H]1CCCN1C(=O)[C@@H](CCCCN)NC(=O)[C@@H](CC(C)C)NC(=O)[C@@H](C)NC(=O)[C@H]1CCCN1C(=O)[C@@H](CCCNC(=N)N)NC(=O)[C@H](NC(=O)[C@@H](CC(=O)O)NC(=O)[C@H](N)Cc1ccc(O)cc1)[C@H](C)O)[C@H](C)CC)C(=O)N[C@H](CCCCN)C(=O)N[C@H](CCCCN)C(=O)N[C@H](CC(C)C)C(=O)N[C@H](CCCCN)C(=O)N[C@H](CCC(=O)O)C(=O)N[C@H](CCCCN)C(=O)N[C@@H](C(=O)N[C@H](CCCCN)C(=O)N[C@H](CC(N)=O)C(=O)N[C@H](CCCNC(=N)N)C(=O)N[C@H](Cc1ccccc1)C(=O)N[C@H](CCCCN)C(=O)N[C@H](CCCNC(=N)N)C(=O)N[C@H](CC(C)C)C(=O)N[C@H](CCCNC(=N)N)C(=O)N[C@H](CCCCN)C(=O)N[C@H](CCCNC(=N)N)C(=O)N[C@H](CC(C)C)C(=O)NCC(=O)O)[C@H](C)CC [R-CAP-18, Ydtrpalkpllgqikqgikklkekiknrfkrlrkrlg] (H-[dY][dD][dT][dR][dP][dA][dL][dK][dP][dL][dL]G[dQ][dI][dK][dQ]G[dI][dK][dK][dL][dK][dE][dK][dI][dK][dN][dR][dF][dK][dR][dL][dR][dK][dR][dL]G-OH)
- MIC ([1]; Strain 121007): 2 µg/mL
- MIC [1, 6]: 0.4 µM
- MIC ([2]; Strain ATCC 121110): 32 µg/mL
- MIC [2, 7]: 7.2 µM

Compound: CC[C@@H](C)[C@@H](NC(=O)CNC(=O)[C@@H](CCC(N)=O)NC(=O)[C@@H](CCCCN)NC(=O)[C@H](NC(=O)[C@@H](CCC(N)=O)NC(=O)CNC(=O)[C@@H](CC(C)C)NC(=O)[C@@H](CC(C)C)NC(=O)[C@H]1CCCN1C(=O)[C@@H](CCCCN)NC(=O)[C@H](N)CC(C)C)[C@H](C)CC)C(=O)N[C@H](CCCCN)C(=O)N[C@H](CCCCN)C(=O)N[C@H](CC(C)C)C(=O)N[C@H](CCCCN)C(=O)N[C@H](CCC(=O)O)C(=O)N[C@H](CCCCN)C(=O)N[C@@H](C(=O)N[C@H](CCCCN)C(=O)N[C@H](CC(N)=O)C(=O)N[C@H](CCCNC(=N)N)C(=O)N[C@H](Cc1ccccc1)C(=O)N[C@H](CCCCN)C(=O)N[C@H](CCCNC(=N)N)C(=O)N[C@H](CC(C)C)C(=O)N[C@H](CCCNC(=N)N)C(=O)N[C@H](CCCCN)C(=O)N[C@H](CCCNC(=N)N)C(=O)N[C@H](CC(C)C)C(=O)NCC(=O)O)[C@H](C)CC [R-CAP-18_31, Lkpllgqikqgikklkekiknrfkrlrkrlg] (H-[dL][dK][dP][dL][dL]G[dQ][dI][dK][dQ]G[dI][dK][dK][dL][dK][dE][dK][dI][dK][dN][dR][dF][dK][dR][dL][dR][dK][dR][dL]G-OH)
- MIC ([1]; Strain 121007): 0.5 µg/mL
- MIC [1, 6]: 0.1 µM
- MIC ([2]; Strain ATCC 121110): 4 µg/mL
- MIC [2, 7]: 1.1 µM

Compound: CC[C@H](C)[C@@H]1NC(=O)CNC(=O)[C@H](CCSC)NC(=O)[C@H](C(C)C)NC(=O)[C@H]([C@@H](C)O)NC(=O)[C@@H]2CSSC[C@@H]3NC(=O)[C@H](Cc4c[nH]cn4)NC(=O)[C@@H](NC(=O)[C@@H](NC(=O)[C@H](Cc4ccccc4)NC(=O)[C@H](C)N)[C@@H](C)O)CSSC[C@@H](C(=O)N[C@@H](CC(C)C)C(=O)O)NC(=O)[C@H](CSSC[C@H](NC(=O)[C@H](CO)NC(=O)[C@H](CCCNC(=N)N)NC(=O)[C@H](CCCNC(=N)N)NC3=O)C(=O)N[C@@H](Cc3ccc(O)cc3)C(=O)N[C@@H](CO)C(=O)N[C@@H]([C@@H](C)O)C(=O)N[C@@H](CCC(=O)O)C(=O)N[C@@H](Cc3ccc(O)cc3)C(=O)N[C@@H](CO)C(=O)N[C@@H](Cc3ccc(O)cc3)C(=O)NCC(=O)N[C@@H]([C@@H](C)O)C(=O)N2)NC(=O)[C@H](Cc2ccccc2)NC(=O)[C@H](CCCNC(=N)N)NC(=O)[C@H](Cc2c[nH]cn2)NC(=O)[C@H](CC(N)=O)NC1=O [α-defensin 6]
- MIC ([3]; Colistin-Resistant): > 50 µg/mL
- MIC [3, 8]: > 13 µM
- MIC ([4]; Colistin Susceptible): > 50 µg/mL
- MIC [4, 9]: > 13 µM

Compound: AKKVFKRLEKLFSKIQNDK [HP 2-20]
- MIC [3, 10]: > 256 µg/mL
- MIC [3, 8]: > 110 µM
- MIC [4, 11]: > 256 µg/mL
- MIC [4, 9]: > 110 µM

Compound: Colistin [reference compound]
- MIC [3, 10]: 32 µg/mL
- MIC [3, 8]: 28 µM
- MIC50 [5]: ≤ 0.125 µg/mL
- MIC90 [5]: 64 µg/mL
- MIC50 ([5]; value in brackets): ≤ 0.11 µM
- MIC90 ([5]; value in brackets): 55 µM
- MIC ([5]; strain 12-1110 S1): ≤0.125 µg/mL
- MIC ([5]; strain 15-0307 S4): ≤0.125 µg/mL
- MIC ([5]; strain 15-0803 S3): ≤0.125 µg/mL
- MIC ([5]; strain 21-0308 R2): 64 µg/mL
- MIC ([5]; strain 21-0410 S5): ≤0.125 µg/mL
- MIC ([5]; strain 21-0505 S2): ≤0.125 µg/mL
- MIC ([5]; strain 36a): 0.25 µg/mL
- MIC ([5]; strain 38a): ≤0.125 µg/mL
- MIC ([5]; strain 27853): ≤0.125 µg/mL
- MIC ([5]; strain 16359347-2 R3): 64 µg/mL
- MIC ([5]; strain C1): 0.25 µg/mL
- MIC ([5]; strain C2): 0.5 µg/mL
- MIC ([5]; strain C3): ≤0.125 µg/mL
- MIC ([5]; strain C4): 0.25 µg/mL
- MIC ([5]; strain C5): ≤0.125 µg/mL
- MIC [4, 11]: 0.75 µg/mL
- MIC [4, 9]: 0.7 µM

Compound: GIGDPVTCLKSGAICHPVFCPRRYKQIGTCGLPGTKCCKKP (disulfide 8-37, 15-30, 20-38) [β-defensin 2]
- MIC [3, 10]: > 50 µg/mL
- MIC [3, 8]: > 12 µM
- MIC [4, 11]: > 50 µg/mL
- MIC [4, 9]: > 12 µM

Compound: GIINTLQKYYCRVRGGRCAVLSCLPKEEQIGKCSTRGRKCCRRKK (disulfide 11-40, 18-33, 23-41) [β-defensin 3]
- MIC ([3]; Colistin-Resistant): > 50 µg/mL
- MIC [3, 8]: > 10 µM
- MIC ([4]; Colistin Susceptible): > 50 µg/mL
- MIC [4, 9]: > 10 µM

Compound: GLVRKGGEKFGEKLRKIGQKIKEFFQKLALEIEQ [r-CRAMP]
- MIC ([3]; Colistin-Resistant): 64 µg/mL
- MIC [3, 8]: 16 µM
- MIC ([4]; Colistin Susceptible): > 256 µg/mL
- MIC [4, 9]: > 65 µM

Compound: H-FRNKIKEKLKKIGQKIQG-OH [CAP-18_18]
- MIC ([1]; Strain 121007): > 64 µg/mL
- MIC [1, 6]: > 30 µM
- MIC ([2]; ATCC 121110): > 64 µg/mL
- MIC [2, 7]: > 30 µM

Compound: H-FRNKIKEKLKKIGQKIQGLLPKL-OH [CAP-18_23]
- MIC ([1]; Strain 121007): > 64 µg/mL
- MIC [1, 6]: > 24 µM
- MIC ([2]; ATCC 121110): > 32 µg/mL
- MIC [2, 7]: > 12 µM

Compound: H-GLRKRLRKFRNKIKEKLKKIG-OH [CAP-18_21]
- MIC ([1]; Strain 121007): 32 µg/mL
- MIC [1, 6]: 12 µM
- MIC ([2]; ATCC 121110): 32 µg/mL
- MIC [2, 7]: 12 µM

Compound: H-IKEKLKKIGQKIQG-OH [CAP-18_14]
- MIC ([1]; Strain 121007): > 64 µg/mL
- MIC ([2]; ATCC 121110): > 64 µg/mL
- MIC [2, 7]: > 40 µM

Compound: H-IKEKLKKIGQKIQGLLPKL-OH [CAP-18_19]
- MIC ([1]; Strain 121007): > 64 µg/mL
- MIC [1, 6]: > 29 µM
- MIC ([2]; ATCC 121110): > 64 µg/mL
- MIC [2, 7]: > 29 µM

Compound: KYYGNGVSCNKKGCSVDWGKAIGIIGNNSAANLATGGAAGWSK (disulfide 9-14) [Mundticin]
- MIC ([3]; Colistin-Resistant): > 256 µg/mL
- MIC [3, 8]: > 60 µM
- MIC ([4]; Colistin Susceptible): > 256 µg/mL
- MIC [4, 9]: > 60 µM

Compound: RRRPRPPYLPRPRPPPFFPPRLPPRIPPGFPPRFPPRFP-NH2 (C-terminus assumed) [PR39]
- MIC [3, 8]: 7 µM
- MIC [4, 9]: 14 µM

Compound: SSLLEKGLDGAKKAVGGLGKLGKDAVEDLESVGKGAVHDVKDVLDSVL [Dermicidin]
- MIC ([3]; Colistin-Resistant): > 256 µg/mL
- MIC [3, 8]: > 53 µM
- MIC ([4]; Colistin Susceptible): > 256 µg/mL
- MIC [4, 9]: > 53 µM

Source: PMC12382740, “In Vitro and In Vivo Characterization of Novel Cathelicidin-Based Peptides with Antimicrobial Activity Against Pseudomonas aeruginosa” (Antibiotics, 2025)
